# Experimental data taken from patent US11278526B2, “Compounds and methods for treating lupus” (RECEPTOS LLC, priority 2016, dated 2022).
# Read-outs that look alike come from different tables or passages of the source.
# How the values were obtained:
# [1] = NZBWF1 mice, cyclophosphamide IP once a week
# Method: Compound 148 was tested for efficacy in an art-accepted mouse model for SLE: NZB×NZW F1 (“NZBWF1”) mice develop an autoimmune disease closely resembling SLE. These mice spontaneously produce high levels of anti-dsDNA antibodies, an indicator of SLE, starting after 20 weeks of age. These mice develop hemolytic anemia, proteinuria, and progressive glomerulonephritis mediated by immune complex deposition in the glomerular basement membrane.
# Six groups of NZBWF1 mice (Jackson Laboratories, stock #100008) were used in the study and were acclimated to the research facility for 7 weeks prior to the start of the study. Weekly measurements of proteinuria (excess serum proteins present in the urine) and body weight began at 20 weeks of age. At 23 weeks of age, the mice were assigned to groups in a balanced manner in order to achieve average body weight and average proteinuria measurements across the groups. […]
# The three groups dosed with compound 148 received 0.3, 1.0, and 3.0 mg/kg PO QD, respectively (20 mice per dosage). […] Disease development was evaluated as disclosed in the following examples. […]
# The three groups dosed with compound 5 received 0.3, 1.0, and 3.0 mg/kg PO QD, respectively (20 mice per dosage). […] Disease development was evaluated as disclosed in the following examples.
# NZBWF1 mice [2] = assay: Survival in NZBWF1 SLE mouse model; type: in vivo; conditions: cyclophosphamide 50 mg/kg IP once a week (compound 5 study), Logrank p=0.0017
# Method: As in Example 2, compound 5 was tested for efficacy in the same NZB×NZW F1 (“NZBWF1”) mouse model for SLE as compound 148. Six groups of NZBWF1 mice (Jackson Laboratories, stock #100008) were used in the study and were acclimated to the research facility for 6 weeks prior to the start of the study. Weekly measurements of proteinuria (excess serum proteins present in the urine) and body weight began at 20 weeks of age. At 22 weeks of age, the mice were assigned to groups in a balanced manner in order to achieve average body weight and average proteinuria measurements across the groups. One “naive” group consisting of 10 mice was euthanized at the start of treatment and used as a source of tissue for analysis. Treatment began at 22 weeks of age.
# The five treatment groups were administered cyclophosphamide (positive control, 20 mice; introduced gradually to reduce toxicity (IP, once a week, 10 mg/kg at Weeks 22 and 23 and 50 mg/kg from Week 24 to the end of the study)), vehicle (negative control, 20 mice), or compound 5 (three groups of 20 mice), beginning at 22 weeks of age and observed over the course of 20 weeks. The three groups dosed with compound 5 received 0.3, 1.0, and 3.0 mg/kg PO QD, respectively (20 mice per dosage). Surviving animals were sacrificed at 42 weeks. […] Disease development was evaluated as disclosed in the following examples.
# NZBWF1 mice [3] = assay: Proteinuria scores (urine dip sticks) in NZBWF1 SLE mouse model; type: in vivo
# From the text: Six groups of NZBWF1 mice (Jackson Laboratories, stock #100008) were used in the study and were acclimated to the research facility for 7 weeks prior to the start of the study. Weekly measurements of proteinuria (excess serum proteins present in the urine) and body weight began at 20 weeks of age. At 23 weeks of age, the mice were assigned to groups in a balanced manner in order to achieve average body weight and average proteinuria measurements across the groups. One “naive” group consisting of 10 mice was euthanized at the start of treatment and used as a source of tissue for analysis. Treatment began at 23 weeks of age.
# The three groups dosed with compound 148 received 0.3, 1.0, and 3.0 mg/kg PO QD, respectively (20 mice per dosage). Surviving animals were sacrificed at 42 weeks. […] Disease development was evaluated as disclosed in the following examples.
# High levels of proteinuria are a strong indicator of SLE. […] Proteinuria was expressed as a score from 0 to 4 (0=no protein; 1=traces of protein (<30 mg/dL); 2=30-100 mg/dL; 3=100-500 mg/dL; 4=>500 mg/dL).
# As in Example 3, proteinuria was measured weekly beginning at 20 weeks using urine dip sticks (Roche Diagnostics Chemstrip 2GP, cat. no. 11895397160, per manufacturer's protocol). Proteinuria was expressed as a score from 0 to 4 (0=no protein; 1=traces of protein (<30 mg/dL); 2=30-100 mg/dL; 3=100-500 mg/dL; 4=>500 mg/dL). […] (In this and the following experiments, the number of mice per group was approximately 20, and statistics were determined by one-way ANOVA with Dunnett's comparison.)
# NZBWF1 mice [4] = assay: Serum blood urea nitrogen (BUN) at termination; type: in vivo
# Method: Lymphocyte counts were measured from whole blood taken at 23, 31, and 36.5 weeks using flow cytometry. Cells were gated for CD4+ T cells, CD8+ T cells, and CD19+ B cells. […] Serum blood urea nitrogen (BUN) was also measured at termination to assess kidney function.
# As in Example 4, serum blood urea nitrogen (BUN) was measured at termination to assess kidney function.
# NZBWF1 mice [5] = assay: Kidney weight at termination (42 weeks); type: in vivo
# From the text: In SLE, inflammatory infiltrates known as Tertiary Lymphatic Tissue (TLT) accumulate in the kidney and spleen, among other tissues. As an indirect measure of disease progression, right and left kidneys were weighed (FIGS. 4A-4B) following termination at 42 weeks.
# As in Example 5, left kidneys were weighed (FIG. 43) following termination at 42 weeks.
# splenocytes = assay: Splenocyte counts and immunophenotyping of spleen cell subtypes; type: in vivo, mice; conditions: mouse, in vivo
# Method: To determine the effects of compound 148 on inflammatory infiltrate in the spleen, spleens were weighed at 42 weeks. […] Splenocyte suspensions were then prepared. RBCs were lysed and splenocytes were counted.
# Plasmacytoid dendritic cells (pDC) express IFNAR1 (Interferon alpha receptor 1), which amplifies the proinflammatory response to type 1 interferons (e.g., IFNα) that are associated with lupus. IFNAR activity is considered to be an important modulator of signal strength and duration in pDC and subsequent activation of T and B cells in the inflammatory response. pDC counts were measured at termination.
# To determine the effects of compound 5 on inflammatory infiltrate in the spleen, spleens were weighed at 42 weeks. […] Splenocyte suspensions were prepared for all three doses. RBCs were lysed and splenocytes were counted.
# [6] = cyclophosphamide 50 mg/kg IP once a week (compound 5 study)
# [7] = cyclophosphamide 50 mg/kg IP once a week (compound 148 study), p<0.05
structure (smiles),measurement,setting,value
"O=P1(N(CCCl)CCCl)NCCCO1 (stereo not shown) [cyclophosphamide, reference compound]",Body weight,[1]; 50 mg/kg from week 24 (compound 5 study),increased body weights
same,Body weight,[1]; 50 mg/kg from week 25 (compound 148 study),increased body weights
same,Survival compared to vehicle,NZBWF1 mice [2],improved survival compared to vehicle treated animals
same,Proteinuria scores relative to vehicle,NZBWF1 mice [3]; [6],significant improvement relative to vehicle
same,Proteinuria scores relative to vehicle,NZBWF1 mice [3]; [7],significant improvement relative to vehicle
same,Serum BUN at termination vs vehicle,NZBWF1 mice [4]; [6],significant reduction in serum BUN
same,Serum BUN at termination vs vehicle,NZBWF1 mice [4]; [7],significant reduction in serum BUN
same,Left kidney weight relative to vehicle,NZBWF1 mice [5]; [6],significantly reduced kidney weight relative to vehicle
same,Kidney weight relative to vehicle,NZBWF1 mice [5]; [7],significantly reduced kidney weight relative to vehicle
same,Decrease of splenic pDC counts relative to vehicle,splenocytes,47%
same,Percent Reduction vs Vehicle: Activated CD4 + T cells,splenocytes,89%
same,Percent Reduction vs Vehicle: CD4 + T cells,splenocytes,77%
same,Percent Reduction vs Vehicle: CD8 + T cells,splenocytes,48%
same,Percent Reduction vs Vehicle: CD11b + Ly6C^hi monocytes,splenocytes,25%
same,Percent Reduction vs Vehicle: CD19 + B cells,splenocytes,91%
same,Percent Reduction vs Vehicle: Follicular B cells,splenocytes,93%
same,Percent Reduction vs Vehicle: Germinal Center B cells,splenocytes,99%
same,Percent Reduction vs Vehicle: Marginal Zone B cells,splenocytes,57%
same,Percent Reduction vs Vehicle: Marginal Zone Progenitor B cells,splenocytes,78%
same,Percent Reduction vs Vehicle: Naive CD4 + T cells,splenocytes,45%
same,Percent Reduction vs Vehicle: Plasma cells,splenocytes,90%
same,Percent Reduction vs Vehicle: Tfh cells,splenocytes,97%
same,Percent Reduction vs Vehicle: Total splenocytes,splenocytes,73%
same,Percent Reduction vs Vehicle: Treg cells,splenocytes,80%
same,Percent Reduction vs Vehicle: pDC,splenocytes,64%
same,Reduction in splenic CD4+ T cell population,splenocytes,84%
same,Reduction in splenic CD8+ T cell population,splenocytes,46%
same,Reduction in splenic CD19+ B cell population,splenocytes,92%
same,Reduction in splenic Follicular (FO) B cells,splenocytes,96%
same,Reduction in splenic Germinal Center (GC) B cell population,splenocytes,99%
same,Reduction in splenic Marginal Zone (MZ) B cell population,splenocytes,74%
same,Reduction in splenic activated CD4+ T cell population,splenocytes,93%
same,Reduction in splenic naïve CD4+ T cells,splenocytes,47%
same,Reduction in splenic plasma cell population,splenocytes,18%
